The target in one assay is DNMT1 (Homo sapiens, UniProt P26358). Nature of the assay: DNMT1 biochemical activity, breaklight assay and/or SPA assay. Particulars: binned activity in either the breaklight or the SPA assay; for IC50: read-out: DNMT1 BioChemical (pIC50 category) (converted).
The test system of assay [1] is erythroid progenitor cells (EPCs). Nature of the assay: Fetal hemoglobin (HbF) ELISA in day 7 erythroid progenitor cells.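 Further: for fetal hemoglobin induction normalized to vehicle-treated cells.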 It counts as cell-based, human. The settings on record: Homo sapiens, Erythroid progenitor cell, HbF ELISA, day 7 EPCs, 5 days; read-out: EPC ELISA (pEC50 category) (converted). Summed up:
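Read-out was OD450 from an HRP/TMB sandwich ELISA on lysates, normalized to DMSO-only control wells. Thawed day 7 EPCs from human marrow CD34+ cells had been treated for 5 days at 37° C with Compound A, 22 concentrations […].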
For orientation: ELISA stands for enzyme-linked immunosorbent assay.

Consider 27 compounds from patent US10975056B2 (GlaxoSmithKline Intellectual Property Development Limited, priority 2016, dated 2021).

Structures are written as SMILES. Where a name gives a salt, the structure may show the parent alone.

DNMT1, sequence (P26358 whole entry, looked up): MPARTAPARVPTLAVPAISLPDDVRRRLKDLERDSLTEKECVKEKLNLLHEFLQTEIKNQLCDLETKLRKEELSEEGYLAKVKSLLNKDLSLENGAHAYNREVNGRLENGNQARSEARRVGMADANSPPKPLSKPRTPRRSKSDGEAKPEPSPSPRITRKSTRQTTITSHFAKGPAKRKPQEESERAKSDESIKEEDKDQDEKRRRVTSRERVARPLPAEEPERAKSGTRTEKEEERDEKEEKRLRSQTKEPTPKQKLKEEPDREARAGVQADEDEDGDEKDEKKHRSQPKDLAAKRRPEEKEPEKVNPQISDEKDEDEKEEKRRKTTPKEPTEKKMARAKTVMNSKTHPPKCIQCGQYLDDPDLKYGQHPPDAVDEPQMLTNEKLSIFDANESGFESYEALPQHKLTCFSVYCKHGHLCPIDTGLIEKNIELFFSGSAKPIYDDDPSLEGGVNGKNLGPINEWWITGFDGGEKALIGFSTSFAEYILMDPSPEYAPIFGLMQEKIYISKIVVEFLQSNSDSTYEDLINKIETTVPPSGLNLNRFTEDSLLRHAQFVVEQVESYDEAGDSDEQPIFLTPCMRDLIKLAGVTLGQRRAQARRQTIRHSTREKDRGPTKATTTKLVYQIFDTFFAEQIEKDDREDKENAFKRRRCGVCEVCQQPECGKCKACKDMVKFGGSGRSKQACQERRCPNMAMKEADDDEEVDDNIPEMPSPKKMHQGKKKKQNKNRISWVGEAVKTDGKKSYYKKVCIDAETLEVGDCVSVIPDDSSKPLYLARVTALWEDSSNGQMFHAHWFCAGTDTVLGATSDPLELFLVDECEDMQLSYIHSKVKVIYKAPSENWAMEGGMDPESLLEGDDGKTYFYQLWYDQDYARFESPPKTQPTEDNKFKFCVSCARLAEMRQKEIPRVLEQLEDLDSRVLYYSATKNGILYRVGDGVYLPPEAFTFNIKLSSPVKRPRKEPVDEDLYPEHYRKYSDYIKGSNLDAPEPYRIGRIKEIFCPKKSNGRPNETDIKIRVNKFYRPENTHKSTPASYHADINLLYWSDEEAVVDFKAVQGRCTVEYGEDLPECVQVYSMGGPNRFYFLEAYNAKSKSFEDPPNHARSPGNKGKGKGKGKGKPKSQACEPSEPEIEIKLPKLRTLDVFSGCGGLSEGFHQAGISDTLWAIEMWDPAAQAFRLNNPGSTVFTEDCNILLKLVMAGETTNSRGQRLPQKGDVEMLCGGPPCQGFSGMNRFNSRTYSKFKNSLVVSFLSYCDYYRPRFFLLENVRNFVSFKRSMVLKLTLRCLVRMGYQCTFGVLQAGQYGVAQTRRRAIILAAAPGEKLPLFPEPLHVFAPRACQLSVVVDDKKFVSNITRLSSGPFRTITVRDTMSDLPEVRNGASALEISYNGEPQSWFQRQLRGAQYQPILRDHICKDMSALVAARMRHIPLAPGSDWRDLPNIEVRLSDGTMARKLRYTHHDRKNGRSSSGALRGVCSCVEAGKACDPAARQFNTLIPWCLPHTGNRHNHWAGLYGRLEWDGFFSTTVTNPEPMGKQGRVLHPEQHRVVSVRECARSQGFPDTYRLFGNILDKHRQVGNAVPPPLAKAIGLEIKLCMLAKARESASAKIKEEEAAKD

In the case of `CCc1c(C#N)c(SC(C(N)=O)c2ccccc2)nc(N(C)Cc2ncc[nH]2)c1C#N` (stereo not drawn) [Example 364, 2-((6-(((1H-Imidazol-2-yl)methyl)(methyl)amino)-3,5-dicyano-4-ethylpyridin-2-yl)thio)-2-phenylacetamide], the “DNMT1 BioChemical (pIC50 category)” value on DNMT1 was “D (Category D: ≥6.5)”. The EC50 in assay [1] was < 0.316 µM.

Take `CCc1c(C#N)c(SC(C(N)=O)c2ccccc2)nc(N2CC[C@H](N)C2)c1C#N` (stereo partly drawn) [Example 528, 2-((6-((S)-3-aminopyrrolidin-1-yl)-3,5-dicyano-4-ethylpyridin-2-yl)thio)-2-phenylacetamide]: the “DNMT1 BioChemical (pIC50 category)” value on DNMT1 was “D (Category D: ≥6.5)”. The EC50 in assay [1] is < 0.316 µM.

Consider `CCc1c(C#N)c(SC(C(N)=O)c2ccccc2)nc(N2CCOC(CN(C)C)C2)c1C#N` (stereo not drawn) [Example 558, 2-((3,5-dicyano-6-(2-((dimethylamino)methyl)morpholino)-4-ethylpyridin-2-yl)thio)-2-phenylacetamide], for which the “DNMT1 BioChemical (pIC50 category)” value on DNMT1 is recorded as “D (Category D: ≥6.5)”. Also, the EC50 in assay [1] is < 0.316 µM.

Consider `CCOc1c(C#N)c(SC(C(N)=O)c2ccccc2)nc(N2CCCN(CCO)CC2)c1C#N` (stereo not drawn) [Example 193], for which, at DNMT1, the “DNMT1 BioChemical (pIC50 category)” value was “D (Category D: ≥6.5)”. In addition, in assay [1], the EC50 was 0.316 to 1 µM.

Regarding `CCc1c(C#N)c(SCc2ccc(C#N)cc2)nc(N2CCCN(C)CC2)c1C#N` [Example 93, 2-((4-Cyanobenzyl)thio)-4-ethyl-6-(4-methyl-1,4-diazepan-1-yl)pyridine-3,5-dicarbonitrile], the IC50 on DNMT1 was 0.316 to 1 µM. The EC50 in assay [1] is > 31.6 µM.

As to `CCc1c(C#N)c(SC(C(N)=O)c2ccccc2)nc(N2CCN(Cc3ccc[nH]3)CC2)c1C#N` (stereo not drawn) [Example 177, 2-((6-(4-((1H-Pyrrol-2-yl)methyl)piperazin-1-yl)-3,5-dicyano-4-ethylpyridin-2-yl)thio)-2-phenylacetamide], the IC50 on DNMT1 is 0.316 to 1 µM. Besides, the EC50 in assay [1] was 1 to 31.6 µM.

Consider `CCc1c(C#N)c(S[C@@H](C(N)=O)c2ccccc2)nc(N2CC[C@@H](O)C2)c1C#N` [Example 134, (R)-2-((3,5-Dicyano-4-ethyl-6-((R)-3-hydroxypyrrolidin-1-yl)pyridin-2-yl)thio)-2-phenylacetamide], for which the IC50 at DNMT1 is 0.316 to 1 µM. In addition, the EC50 in assay [1] is 1 to 31.6 µM.

For `CCc1c(C#N)c(SC(C(N)=O)c2ccccc2)nc(N(C)CCN2CC[C@H](N)C2)c1C#N` (stereo partly drawn) [Example 535, 2-((6-((2-((S)-3-aminopyrrolidin-1-yl)ethyl)(methyl)amino)-3,5-dicyano-4-ethylpyridin-2-yl)thio)-2-phenylacetamide], the “DNMT1 BioChemical (pIC50 category)” value on DNMT1 is listed as “D (Category D: ≥6.5)”. Moreover, the EC50 in assay [1] was 0.316 to 1 µM.

Turning to `CCc1c(C#N)c(SC(C(N)=O)c2ccc(F)cc2)nc(N2CCNCC2)c1C#N` (stereo not drawn) [Example 196, 2-((3,5-Dicyano-4-ethyl-6-(piperazin-1-yl)pyridin-2-yl)thio)-2-(4-fluorophenyl)acetamide, Trifluoroacetic Acid Salt], on DNMT1, the “DNMT1 BioChemical (pIC50 category)” value is reported as “D (Category D: ≥6.5)”. In assay [1], the EC50 is < 0.316 µM.

Consider `CCc1c(C#N)c(SCc2ccc(N(C)S(C)(=O)=O)cc2)nc(N(C)CCN2CCCCC2)c1C#N` [Example 577, N-(4-(((3,5-dicyano-4-ethyl-6-(methyl(2-(piperidin-1-yl)ethyl)amino)pyridin-2-yl)thio)methyl)phenyl)-N-methylmethanesulfonamide], for which, at DNMT1, the “DNMT1 BioChemical (pIC50 category)” value is reported as “D (Category D: ≥6.5)”. In assay [1], the EC50 is < 0.316 µM.

As to `CCc1c(C#N)c(SC(C(N)=O)c2ccccc2)nc(N2CCC(n3ccnc3)CC2)c1C#N` (stereo not drawn) [Example 172, 2-((6-(4-(1H-Imidazol-1-yl)piperidin-1-yl)-3,5-dicyano-4-ethylpyridin-2-yl)thio)-2-phenylacetamide], the IC50 on DNMT1 was 1 to 31.6 µM. Moreover, the EC50 in assay [1] was < 0.316 µM.

As to `CCc1c(C#N)c(SC(C(N)=O)c2ccccc2)nc(N2CCC(NC(=O)[C@H](N)CO)CC2)c1C#N` (stereo partly drawn) [Example 398, (2R)-2-Amino-N-(1-(6-((2-amino-2-oxo-1-phenylethyl)thio)-3,5-dicyano-4-ethylpyridin-2-yl)piperidin-4-yl)-3-hydroxypropanamide], the “DNMT1 BioChemical (pIC50 category)” value at DNMT1 is given as “D (Category D: ≥6.5)”. For the same compound, the EC50 in assay [1] was 1 to 31.6 µM.

Turning to `CCc1c(C#N)c(SCc2ccc3c(c2)OCO3)nc(N2CCCN(C)CC2)c1C#N` [Example 346, 2-((Benzo[1,3]dioxol-5-ylmethyl)thio)-4-ethyl-6-(4-methyl-1,4-diazepan-1-yl)pyridine-3,5-dicarbonitrile], the IC50 at DNMT1 is 0.316 to 1 µM. In addition, the EC50 in assay [1] was > 31.6 µM.

In the case of `CCc1c(C#N)c(SC(C(N)=O)c2ccccc2)nc(N2CCN(C3CCNCC3)CC2)c1C#N` (stereo not drawn) [Example 13, 2-({3,5-dicyano-4-ethyl-6-[4-(piperidin-4-yl)piperazin-1-yl]pyridin-2-yl}sulfanyl)-2-phenylacetamide], on DNMT1, the IC50 was 0.316 to 1 µM. Moreover, the EC50 in assay [1] was 0.316 to 1 µM.

Consider `CCc1c(C#N)c(SCc2ccc(NS(C)(=O)=O)cc2)nc(N(C)C)c1C#N` [Example 287, N-(4-(((3,5-Dicyano-6-(dimethylamino)-4-ethylpyridin-2-yl)thio)methyl)phenyl) methanesulfonamide], for which the IC50 at DNMT1 was 0.316 to 1 µM. Besides, the EC50 in assay [1] is 1 to 31.6 µM.

Take `CCc1c(C#N)c(SC(C(N)=O)c2ccccc2)nc(N2CCC[C@@H](N)C2)c1C#N` (stereo partly drawn) [Example 691, 2-((6-((R)-3-aminopiperidin-1-yl)-3,5-dicyano-4-ethylpyridin-2-yl)thio)-2-phenylacetamide]: the “DNMT1 BioChemical (pIC50 category)” value on DNMT1 is “D (Category D: ≥6.5)”. Besides, in assay [1], the EC50 is 1 to 31.6 µM.

With `CN(C)C1CCN(c2nc(SC(C(N)=O)c3ccccc3)c(C#N)c(C3CC3)c2C#N)CC1` (stereo not drawn) [Example 29, 2-((3,5-dicyano-4-cyclopropyl-6-(4-(dimethylamino)piperidin-1-yl)pyridin-2-yl)thio)-2-phenylacetamide], the “DNMT1 BioChemical (pIC50 category)” value at DNMT1 is on record as “D (Category D: ≥6.5)”. In addition, in assay [1], the EC50 is < 0.316 µM.

As for `CCc1c(C#N)c(SCc2ccc(N(C)C(C)=O)cc2)nc(N2CCCN(C)CC2)c1C#N` [Example 354, N-(4-(((3,5-Dicyano-4-ethyl-6-(4-methyl-1,4-diazepan-1-yl)pyridin-2-yl)thio)methyl)phenyl)-N-methylacetamide], the IC50 on DNMT1 was 0.316 to 1 µM. Besides, the EC50 in assay [1] is 1 to 31.6 µM.

As for `CCc1c(C#N)c(SCc2ccc(N(C)S(C)(=O)=O)cc2)nc(N(C)CCNC)c1C#N` [Example 471, N-(4-(((3,5-dicyano-4-ethyl-6-(methyl(2-(methylamino)ethyl)amino)pyridin-2-yl)thio)methyl)phenyl)-N-methylmethanesulfonamide], the “DNMT1 BioChemical (pIC50 category)” value on DNMT1 is “D (Category D: ≥6.5)”. In addition, in assay [1], the EC50 was < 0.316 µM.

With `CCc1c(C#N)c(SC(C(N)=O)c2ccccc2)nc(N(C)CC(=O)N2CC(O)C2)c1C#N` (stereo not drawn) [Example 633, 2-((3,5-dicyano-4-ethyl-6-((2-(3-hydroxyazetidin-1-yl)-2-oxoethyl)(methyl)amino)pyridin-2-yl)thio)-2-phenylacetamide], on DNMT1, the “DNMT1 BioChemical (pIC50 category)” value is given as “D (Category D: ≥6.5)”. The EC50 in assay [1] is < 0.316 µM.

In the case of `CCc1c(C#N)c(SC(C(N)=O)c2ccccc2)nc(N(C)CC(=O)N2CCOCC2)c1C#N` (stereo not drawn) [Example 623, 2-((3,5-dicyano-4-ethyl-6-(methyl(2-morpholino-2-oxoethyl)amino)pyridin-2-yl)thio)-2-phenylacetamide], the “DNMT1 BioChemical (pIC50 category)” value on DNMT1 was “D (Category D: ≥6.5)”. In assay [1], the EC50 is < 0.316 µM.

Turning to `CCc1c(C#N)c(SCc2ccc(CNC(C)=O)cc2)nc(N2CCC(NC(C)=O)CC2)c1C#N` [Example 290, N-(1-(6-((4-(Acetamidomethyl)benzyl)thio)-3,5-dicyano-4-ethylpyridin-2-yl)piperidin-4-yl)acetamide], the IC50 at DNMT1 was 0.316 to 1 µM. Besides, the EC50 in assay [1] was 1 to 31.6 µM.

Turning to `N#Cc1c(SC(C(N)=O)c2ccccc2)nc(N2CCN(CCCN)CC2)c(C#N)c1C1CC1` (stereo not drawn) [Example 124, 2-((6-(4-(3-Aminopropyl)piperazin-1-yl)-3,5-dicyano-4-cyclopropylpyridin-2-yl)thio)-2-phenylacetamide], the IC50 at DNMT1 was 0.316 to 1 µM. Also, the EC50 in assay [1] is 1 to 31.6 µM.

As to `CCc1c(C#N)c(SC(C(N)=O)c2ccccc2)nc(N2CCC(NCCOC)C(F)C2)c1C#N` (stereo not drawn) [Example 510, 2((3,5-dicyano-4-ethyl-6-(3-fluoro-4-((2-methoxyethyl)amino)piperidin-1-yl)pyridin-2-yl)thio)-2-phenylacetamide], the “DNMT1 BioChemical (pIC50 category)” value on DNMT1 is listed as “D (Category D: ≥6.5)”. Further, the EC50 in assay [1] was < 0.316 µM.

Consider `CCc1c(C#N)c(SC(C(N)=O)c2ccccc2)nc(N2CC3NCCOC3C2)c1C#N` (stereo not drawn) [Example 204, 2-((3,5-Dicyano-4-ethyl-6-(hexahydropyrrolo[3,4-b][1,4]oxazin-6(2H)-yl)pyridin-2-yl)thio)-2-phenylacetamide], for which the IC50 at DNMT1 is 0.316 to 1 µM. Also, the EC50 in assay [1] is 1 to 31.6 µM.

For `CCc1c(C#N)c(SC(C(N)=O)c2ccccc2)nc(N(C)CC(=O)N2CCO[C@@H](CO)C2)c1C#N` (stereo partly drawn) [Example 662, 2-((3,5-dicyano-4-ethyl-6-((2-((R)-2-(hydroxymethyl)morpholino)-2-oxoethyl)(methyl)amino)pyridin-2-yl)thio)-2-phenylacetamide], on DNMT1, the “DNMT1 BioChemical (pIC50 category)” value is reported as “D (Category D: ≥6.5)”. The EC50 in assay [1] is < 0.316 µM.

For `CCc1c(C#N)c(SC(C(N)=O)c2ccnc(C)c2)nc(N2CCCN(C)CC2)c1C#N` (stereo not drawn) [Example 246, 2-((3,5-Dicyano-4-ethyl-6-(4-methyl-1,4-diazepan-1-yl)pyridin-2-yl)thio)-2-(2-methylpyridin-4-yl)acetamide], on DNMT1, the IC50 was 0.316 to 1 µM. For the same compound, the EC50 in assay [1] was > 31.6 µM.
